Series [1] is filed under the species Rattus norvegicus. Description: animal or person. The series is classed as functional. The note with it: iv, read-out: ID50 (the source's name).
Description: Antagonistic activity towards serotonin 5-HT3 receptor was evaluated by inhibition of 5-HT evoked reflexes in rat on intravenous administration
Series [2] in a line: pKa value was determined. Format: physicochemical.

Eleven compounds from ChEMBL document CHEMBL1126232, “3-oxagranatane (3-oxa-9-azabicyclo[3.3.1]nonane) derivatives as highly potent serotonin 5-Ht3 receptor antagonists” (Bioorg Med Chem Lett, 1992) can be followed below.

For the compound `COc1cc(N)c(Cl)cc1C(=O)NC1CC2CCC(C1)N2C` (stereo not drawn), the ED50 in series [1] was determined as 0.8 µg/kg.
For the compound `COc1ccccc1NC(=O)NC1CC2COCC(C1)N2C` (stereo not drawn), in series [1], the ED50 was determined as 1.1 µg/kg.
`COc1ccccc1NC(=O)NC1CC2CCCC(C1)N2C` (stereo not drawn): in series [1], the ED50 amounted to 7.5 µg/kg.
On the same count and under the same terms, the result for `COc1ccccc1NC(=O)NC1CC2CCC(C1)N2C` (stereo not drawn) reads 2.5 µg/kg; that for `COc1cc(N)c(Cl)cc1C(=O)NC1CC2CCCC(C1)N2C` (stereo not drawn), 0.4 µg/kg.
As usually defined, the pKa is the pH at which an ionisable group is half protonated. In the case of `CN1C2CCC1CC(NC(=O)N1CC(C)(C)c3ccccc31)C2` (stereo not drawn), the pKa in series [2] was determined as 9.4. Also, the ED50 in series [1] was determined as 0.7 µg/kg.
In series [2], `CN1C2COCC1CC(NC(=O)N1CC(C)(C)c3ccccc31)C2` (stereo not drawn) registered a pKa of 7.1. In addition, in series [1], the ED50 is 0.13 µg/kg.
For `COc1cc(N)c(Cl)cc1C(=O)NC1CC2COCC(C1)N2C` (stereo not drawn), the ED50 in series [1] is 0.09 µg/kg.
As to `CN1C2CCC1CC(NC(=O)N1CCc3ccccc31)C2` (stereo not drawn), the ED50 in series [1] was found to be 1.4 µg/kg.
Take `CN1C2CCCC1CC(NC(=O)c1nn(C)c3ccccc13)C2` (stereo not drawn) [GRANISETRON]: the pKa in series [2] turned out to be 9.1.
As to `CN1C2COCC1CC(NC(=O)c1nn(C)c3ccccc13)C2` (stereo not drawn), the ED50 in series [1] was 0.16 µg/kg.
